Source: patent US7504394B2 (Wyeth, priority 2004, dated 2009)
In brackets after ≈: the same amount, converted by molar mass.

How the values were obtained:
uterine response = details: preclinical models of uterine stimulation; cited from earlier work
[1] = test system: ovariectomized rat model of osteopenia; details: cited from earlier work
[2] = test system: MCF-7 cell line (human breast cancer cell line); details: cited from earlier work
[3] = Equilibrium solubility of bazedoxifene ascorbate in 0.0005 M acetic acid at 37° C.; type: physicochemical; details: aqueous buffer, thermodynamic from solid, filtered 0.2 um, HPLC
Protocol: The samples were rotated at 50 rotation/min for 18 hours. All samples were filtered through 0.2 um (Nylon Acrodisc) filter. Samples were analyzed by HPLC.

SMILES | stimulation of uterine response (uterine response) | effect on bone loss [1] | effect on cholesterol [1] | estrogen agonist/antagonist behaviour [2] | solubility thermodynamic at 18 h [3]
Cc1c(-c2ccc(O)cc2)n(Cc2ccc(OCCN3CCCCCC3)cc2)c2ccc(O)cc12 [bazedoxifene acetate] | little or no stimulation of uterine response | estrogen agonist-like effect in preventing bone loss | reducing cholesterol | behaves as an estrogen antagonist | 
Cc1c(-c2ccc(O)cc2)n(Cc2ccc(OCCN3CCCCCC3)cc2)c2ccc(O)cc12 [bazedoxifene ascorbate, 1-[4-(2-azepan-1-yl-ethoxy)-benzyl]-2-(4-hydroxy-phenyl)-3-methyl-1H-indol-5-ol] |  |  |  |  | 1660 µg/mL (≈ 3.53 mM)
